# Data from PubChem BioAssay (NCI).
#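 Test compounds were applied to cells in 96-well plates for 48 hours at 5 doses. GI50: concentration for 50% inhibition of growth. TGI marks complete inhibition of growth.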
# Experiments:
# Experiment in all cases: NCI-60 cell line screen, 48 h
# [1] = tested on: A549 NSCLC
# [2] = tested on: ACHN renal
# [3] = tested on: HCT-15 colon
# [4] = tested on: HT29 colon
# [5] = tested on: MCF7 breast
# [6] = tested on: NCI-H226 lung
# [7] = tested on: OVCAR-8 ovarian
# [8] = tested on: PC-3 prostate
# [9] = tested on: SK-MEL-28 melanoma
# [10] = tested on: SW-620 colon
# [11] = tested on: TK-10 renal
Structure (SMILES),TGI [1],TGI [2],TGI [3],TGI [4],TGI [5],TGI [6],TGI [7],TGI [8],TGI [9],TGI [10],TGI [11],GI50 [1],GI50 [3],GI50 [5],GI50 [7],GI50 [8],GI50 [9],GI50 [11]
Nn1c(-c2ccccc2)n[nH]c1=O,> 100 µM,> 100 µM,> 100 µM,> 100 µM,> 100 µM,> 100 µM,> 100 µM,> 100 µM,> 100 µM,> 100 µM,> 100 µM,,,,,,,
Nc1ncnc2c1[nH]c(=O)n2-c1ccccc1,> 100 µM,> 100 µM,> 100 µM,> 100 µM,> 100 µM,,> 100 µM,> 100 µM,> 100 µM,> 100 µM,> 100 µM,,,,,,,
O=C(OCc1ccccc1)N1CCNCCN(C(=O)OCc2ccccc2)CCNCC1,> 100 µM,> 100 µM,> 100 µM,42 µM,38.8 µM,> 100 µM,> 100 µM,> 100 µM,45.3 µM,> 100 µM,> 100 µM,,,,,,,
O=C(N/N=C/c1ccc(Cl)cc1)c1c(Cl)c(Cl)c(Cl)c(Cl)c1-c1nc2ccccc2[nH]1,> 100 µM,> 100 µM,> 100 µM,> 100 µM,> 100 µM,> 100 µM,,> 100 µM,> 100 µM,> 100 µM,,,,,,,,
COP(=O)(OC)C1=c2c(C)noc2=C2C=COC2C1=O (stereo not drawn),> 100 µM,> 100 µM,> 100 µM,> 100 µM,> 100 µM,> 100 µM,> 100 µM,> 100 µM,,> 100 µM,> 100 µM,,,,,,,
CCOC(=O)Nc1sc2c(c1C#N)CCCC2,,> 100 µM,> 100 µM,> 100 µM,> 100 µM,> 100 µM,,> 100 µM,> 100 µM,> 100 µM,> 100 µM,,,,,,,
O=C1c2cc3c(cc2-c2c1c1ccc(F)cc1c(=O)n2C[C@H](O)[C@@H](O)[C@H](O)CO)OCO3,> 100 µM,,0.766 µM,,0.151 µM,,> 100 µM,> 100 µM,0.765 µM,,0.858 µM,0.226 µM,0.183 µM,0.0119 µM,0.0904 µM,0.205 µM,0.195 µM,0.262 µM
C[C@]12CC[C@H](O)CC1=CC[C@@H]1[C@@H]2CC[C@]2(C)C(=N/N)/C(=N\O)C[C@@H]12,> 100 µM,> 100 µM,> 100 µM,> 100 µM,> 100 µM,> 100 µM,> 100 µM,> 100 µM,,> 100 µM,> 100 µM,,,,,,,
CCC(=O)NC(Nc1cc(C)on1)(C(F)(F)F)C(F)(F)F,> 100 µM,> 100 µM,> 100 µM,> 100 µM,> 100 µM,> 100 µM,> 100 µM,,> 100 µM,> 100 µM,> 100 µM,,,,,,,
COc1ccc2cc1Oc1ccc(cc1)C[C@H]1c3cc(c(OC)cc3CCN1C)Oc1c(O)c(OC)cc3c1[C@H](C2)N(C)CC3,75 µM,,33.5 µM,55.2 µM,51.5 µM,63 µM,8.43 µM,,48.3 µM,37.2 µM,,,,,,,,
CCOC(=O)c1c(CN2CCCC2)n(-c2ccccc2)c2cc(Br)c(O)cc12,32 µM,44.9 µM,40.5 µM,18.2 µM,39.5 µM,,49.1 µM,48.5 µM,29.7 µM,42.5 µM,48 µM,,,,,,,
Oc1ccc2c(c1)c1c(n2CCN2CCOCC2)-c2ccccc2CC1,,> 100 µM,66.1 µM,45.8 µM,> 100 µM,85.6 µM,> 100 µM,> 100 µM,55.6 µM,> 100 µM,77.9 µM,,,,,,,
CC1=C(Cl)C=CP(=O)(Oc2ccccc2)C1 (stereo not drawn),> 100 µM,> 100 µM,> 100 µM,,,,60.6 µM,,> 100 µM,> 100 µM,,,,,,,,
Nc1nc2c(c(-c3cccc(Cl)c3)n1)COC/C2=C\c1cccc(Cl)c1,,> 100 µM,> 100 µM,> 100 µM,> 100 µM,> 100 µM,> 100 µM,> 100 µM,> 100 µM,> 100 µM,> 100 µM,,,,,,,
S=C(N/N=C(/c1ccccc1)c1ccccn1)N(Cc1ccccn1)Cc1ccccn1,2.01 µM,0.74 µM,,2.09 µM,5.02 µM,0.433 µM,1.13 µM,1.78 µM,5.45 µM,7.72 µM,1.58 µM,,,,,,,
Nn1c(Nc2ccc(S(=O)(=O)Nc3ncccn3)cc2)nnc(/C=C/c2c(O)ccc3ccccc23)c1=O,> 100 µM,67.3 µM,> 100 µM,> 100 µM,60.3 µM,,> 100 µM,> 100 µM,,> 100 µM,75.8 µM,,,,,,,

Structure (SMILES),TGI [1],TGI [2],TGI [3],TGI [4],TGI [5],TGI [6],TGI [7],TGI [8],TGI [9],TGI [10],TGI [11],GI50 [1],GI50 [3],GI50 [5],GI50 [7],GI50 [8],GI50 [9],GI50 [11]
N#C/C(=C1/Sc2c(nc[nH]c2=O)N1c1ccccc1)c1nc2ccccc2[nH]1,> 100 µM,> 100 µM,> 100 µM,> 100 µM,,,> 100 µM,,> 100 µM,> 100 µM,> 100 µM,,,,,,,
Cc1ccc(NC(=O)CC2Sc3ccccc3NC2=O)cc1C (stereo not drawn),> 100 µM,> 100 µM,> 100 µM,> 100 µM,,> 100 µM,> 100 µM,,> 100 µM,> 100 µM,> 100 µM,,,,,,,
Nc1c(S(=O)(=O)O)cc2cc(S(=O)(=O)O)ccc2c1N=Nc1ccc(-c2ccc(N=Nc3c(N)c(S(=O)(=O)O)cc4cc(S(=O)(=O)O)ccc34)c(S(=O)(=O)O)c2)cc1,> 100 µM,,> 100 µM,> 100 µM,51.4 µM,> 100 µM,> 100 µM,,> 100 µM,> 100 µM,,,,,,,,
Oc1ccc(-c2nc3ccc(Br)cc3s2)cc1,68.9 µM,62.8 µM,67.5 µM,50.5 µM,74.5 µM,39.9 µM,49.3 µM,54.8 µM,,> 100 µM,35.9 µM,,,,,,,
CC1CN(C)c2ccccc2N=C1NN (stereo not drawn),> 100 µM,> 100 µM,> 100 µM,> 100 µM,,> 100 µM,> 100 µM,> 100 µM,> 100 µM,> 100 µM,> 100 µM,,,,,,,
COc1ccc(-n2c(C)nc3ccc(NC(=S)Nc4ccccc4)cc3c2=O)cc1,,> 100 µM,> 100 µM,> 100 µM,> 100 µM,> 100 µM,> 100 µM,> 100 µM,> 100 µM,> 100 µM,> 100 µM,,,,,,,
Nc1nc(SCCC/C=C/I)nc2c1ncn2C1OC(COP(=O)(O)O)C(O)C1O (stereo not drawn),> 100 µM,> 100 µM,> 100 µM,> 100 µM,,> 100 µM,> 100 µM,,> 100 µM,> 100 µM,> 100 µM,,,,,,,
N[C@@H](CCC(=O)NCP(=O)(O)O)C(=O)O,> 100 µM,> 100 µM,> 100 µM,> 100 µM,> 100 µM,,> 100 µM,> 100 µM,> 100 µM,> 100 µM,> 100 µM,,,,,,,
O=[N+]([O-])c1ccc2[nH]nc(OCc3ccccc3Cl)c2c1,> 100 µM,62.1 µM,> 100 µM,> 100 µM,,> 100 µM,> 100 µM,> 100 µM,> 100 µM,,61.3 µM,,,,,,,
C(=C(c1ccc(OC2CCCCO2)cc1)c1ccc(OC2CCCCO2)cc1)c1ccccc1 (stereo not drawn),1.69 µM,2.24 µM,,1.28 µM,1.43 µM,3.17 µM,2.64 µM,1.59 µM,2.41 µM,1.62 µM,2.35 µM,,,,,,,
COC(=O)C1CC(C=[N+](C)C)=C(SC)N1C(=O)OCc1ccccc1 (stereo not drawn),> 100 µM,> 100 µM,> 100 µM,> 100 µM,> 100 µM,,> 100 µM,> 100 µM,> 100 µM,> 100 µM,> 100 µM,,,,,,,
COC(=O)[C@@H](O)[C@](O)(CCC(C)C)C(=O)O[C@@H]1C(OC)=C[C@]23CCCN2CCc2cc4c(cc2[C@H]13)OCO4,5.19 µM,,7.33 µM,12.2 µM,2.18 µM,6.31 µM,6.51 µM,,2.78 µM,9.94 µM,,,,,,,,
N#CC(Cc1ccccc1)N(CCC1=CCCCC1)C(c1ccccc1)c1ccccc1 (stereo not drawn),> 100 µM,> 100 µM,> 100 µM,> 100 µM,> 100 µM,,> 100 µM,> 100 µM,> 100 µM,> 100 µM,> 100 µM,,,,,,,
Cc1oc2c(cc(O)c3cc(O)ccc32)c2cccc1-2,> 100 µM,> 100 µM,> 100 µM,> 100 µM,> 100 µM,,> 100 µM,> 100 µM,> 100 µM,> 100 µM,> 100 µM,,,,,,,
CCCCCCCC/C=C\CCCCCCCCCCCC(=O)O,> 125 µM,,122 µM,> 125 µM,33.8 µM,107 µM,> 109 µM,,108 µM,90.1 µM,,,,,,,,
c1ccc2c3[nH]c(c2c1)=Nc1ccc(cc1)-c1nc2cc(ccc2o1)N=c1[nH]c(c2ccccc12)=Nc1ccc2nc(oc2c1)-c1ccc(cc1)N=3,,> 100 µM,> 100 µM,> 100 µM,> 100 µM,,,> 100 µM,> 100 µM,> 100 µM,,,,,,,,
